Assay results reported in the NIST ThermoML archive (doi:10.1021/je500271z).
Numbers after ± are expanded uncertainties.

Experiment: osmotic coefficient (dimensionless); mn = molality of the nth substance listed, in mol/kg
Conditions: 298.15 K, Liquid, vapor pressure osmometry

osmotic coefficient (m1 = 0.2485): 0.95 ± 0.02
osmotic coefficient (m1 = 0.5058): 0.922 ± 0.02
osmotic coefficient (m1 = 1.993): 0.976 ± 0.02
Structure (SMILES): [Cl-].[Na+] [sodium chloride] + O
